Our source for the LC retention time values is the RepoRT retention time repository.

Molecules are shown by their SMILES.

This data set in a line: RP, Waters ACQUITY UPLC BEH C18, 50 × 2.1 mm, 1.7 µm, 35 °C, 0.25 mL/min, estimated dead time 0.44 min; A: water + 0.1% acetic acid, pH 3; B: acetonitrile; gradient (min/%B) 0/5 1.12/5 6.41/99.5 10.01/99.5. To be noted: stereoisomer not certain.
On to `NC(Cc1ccccc1)C(=O)NC(Cc1ccccc1)C(=O)O` (stereo not given) [Phe-phe], for which the LC retention time was 4 min. On to `CCCCCCCCCC(=O)O` [decanoic acid], for which the LC retention time was 10 min. The result for `CCCCCCCCCCCCCCCCC(=O)O` [heptadecanoic acid] reads 15 min. The result for `O=C(O)CCCCCCCCCCCCCCC(=O)O` [hexadecanedioic acid] reads 9.37 min; that for `O=S(=O)([O-])Oc1c[nH]c2ccccc12.[K+]` [indoxyl sulfuric acid], 2 min.

`COCC(NC(C)=O)C(=O)NCc1ccccc1` (stereo not given) [lacosamide]: the LC retention time is 4 min.

On to `CCCCCCCCCCCCCCCCCC(=O)OCC(O)COP(=O)([O-])OCC[N+](C)(C)C` (stereo not given) [lysoPC(18:0/0:0)], for which the LC retention time is 11.5 min. For `O=C(O)CCCCCCCC(=O)O` [nonanedioic acid], the LC retention time was 5 min. For `NC(=O)CCC(NC(=O)Cc1ccccc1)C(=O)O` (stereo not given) [phenylacetylglutamine], the LC retention time was 2 min. The result for `NC(Cc1c[nH]c2ccccc12)C(=O)O` (stereo not given) [tryptophan] reads 1 min.
